Experimental findings from paper PMC9715617 (Frontiers in Pharmacology, 2022) are described below.

Broadly, the IC50 is the concentration that inhibits the measured activity by half. Low readings indicate inhibition by little substance, high ones a need for much substance.

Structures are written as SMILES.

The target of the first assay is SARS-CoV-2 3CL^pro (Severe acute respiratory syndrome coronavirus 2, UniProt P0DTD1). As to the kind of experiment: SARS-CoV-2 3CLpro enzyme inhibition assay (fluorophore-quencher peptide substrate). Format: biochemical. As to conditions: 200 nM 3CLpro, 20 min preincubation, 30 min at 25°C, triplicate. How it is done:
Fluorescence intensity was measured on a microplate reader (λex = 485 nm; λem = 528 nm). Experiment was performed in triplicate.
With `O=C(N[C@@H](c1cccc(F)c1)C(F)(F)F)[C@@H](c1cnccn1)N(C(=O)c1ccco1)c1ccc(C2CCCCC2)cc1` [Hit 1], 17 ± 3 nM corresponded to half-maximal inhibition (IC50).
Still for that read-out and setting: the value for `O=C(NCc1c(F)c(F)c(F)c(F)c1F)[C@@H](c1cccnc1)N(C(=O)c1ccno1)c1ccc(-c2cccs2)cc1` [Hit 2] was 830 ± 110 nM; that for `C[C@H](NC(=O)[C@@H](c1cccnc1)N(C(=O)c1ccno1)c1ccc(C2CCCCC2)cc1)c1cccc(F)c1F` [Hit 3] was 90 ± 20 nM; that for `O=C(NCc1ccccc1)[C@@H](c1cccnc1)N(C(=O)c1ccco1)c1ccc(-c2cccs2)cc1` [Hit 4] was 750 ± 40 nM.
Same read-out and setting: with `O=C(Nc1ccc(N(Cc2ccsc2)C(=O)Cn2nnc3ccccc32)cc1)C1CC1` [ML300, reference compound] the figure was 4010 ± 660 nM.

Staying with this assay, now noted: ratio of IC50 values vs ML300.
Take `O=C(N[C@@H](c1cccc(F)c1)C(F)(F)F)[C@@H](c1cnccn1)N(C(=O)c1ccco1)c1ccc(C2CCCCC2)cc1` [Hit 1]: the “inhibition activity, times stronger than that of ML300” value is given as “about 236 times”.
